# Values quoted from earlier work, collected in patent US20070196322A1, “Method of preparing the colon for virtual colonoscopy” (Braintree Laboratories Inc., priority 2005, published 2007).
# Where two headings read alike, the source gives them in different places.
# System: patient
structure (smiles),measurement,setting,value
"CC(=O)Oc1ccc(C(c2ccc(OC(C)=O)cc2)c2ccccn2)cc1 [Bisacodyl, bisacodyl]",time to bowel movement,enemas,about 20 minutes
same,time to bowel movement,oral administration of a tablet,three to six
same,time to bowel movement,"oral administration of a tablet, listed as bisacodyl",three to about six
same,time to bowel movement,suppositories,about an hour
